Test results from patent publication US8952024B2, “Herbicidal pyrimidone derivatives” (E I du Pont de Nemours and Company, priority 2009, dated 2015).

How the values were obtained:
Type in all cases: in vivo
[1] = test system: pigweed (Amaranthus retroflexus); experiment: Test A pre-/postemergence plant response
Procedure, shortened: (§1)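 Injury scores (0, no effect; 100, complete control) come from visual comparison with untreated controls roughly ten days post-treatment. Test chemicals in a surfactant-containing non-phytotoxic solvent were applied as a directed soil spray preemergence and to one- to two-leaf seedlings postemergence.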

[2] = test system: morningglory (Ipomoea spp.); experiment: Test A pre-/postemergence plant response
Procedure, shortened: as §1

rice (Oryza sativa) = experiment: Test B flooded paddy test; conditions: for Plant response rating, Rice: Flood (flooded paddy test), 13 to 15 days
Procedure, shortened: (§2)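 Flooded-pot test: water raised to 3 cm above soil when treating, compound put in the water, level unchanged thereafter. Plants were at 2 leaves. Readout after 13 to 15 days, visual, relative to controls; 0 signifies no effect and 100 complete control.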

[3] = test system: ducksalad (Heteranthera limosa); experiment: Test B flooded paddy test; conditions: for Plant response rating, Ducksalad: Flood (flooded paddy test), 13 to 15 days
Procedure, shortened: as §2

[4] = test system: barnyardgrass (Echinochloa crus-galli); experiment: Test B flooded paddy test; conditions: for Plant response rating, Barnyardgrass: Flood (flooded paddy test), 13 to 15 days
Procedure, shortened: as §2

[5] = test system: umbrella sedge (Cyperus difformis); experiment: Test B flooded paddy test; conditions: for Plant response rating, Sedge, Umbrella: Flood (flooded paddy test), 13 to 15 days
Procedure, shortened: as §2

[6] = test system: woolly cupgrass (Eriochloa villosa); experiment: Test B pre-/postemergence plant response; conditions: Postemergence
Procedure, shortened: (§3)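 Pre-em in loam/sand; post-em at 1–4 leaf (2–18 cm) in peat mix. Solvent + surfactant formulation. Greenhouse 13–15 d; visual % control vs untreated, 0–100.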

[7] = test system: wheat (Triticum aestivum); experiment: Test B pre-/postemergence plant response; conditions: Postemergence
Procedure, shortened: as §3

[8] = test system: goosegrass (Eleusine indica); experiment: Test B pre-/postemergence plant response; conditions: Postemergence
Procedure, shortened: as §3

[9] = test system: giant foxtail (Setaria faberii); experiment: Test B pre-/postemergence plant response; conditions: Postemergence
Procedure, shortened: as §3

[10] = test system: morningglory (Ipomoea coccinea); experiment: Test B pre-/postemergence plant response; conditions: Postemergence
Procedure, shortened: as §3

[11] = test system: johnsongrass (Sorghum halepense); experiment: Test B pre-/postemergence plant response; conditions: Postemergence
Procedure, shortened: as §3

[12] = Postemergence, 125 g ai/ha, 0 to 100 scale where 0 is no effect and 100 is complete control
[13] = Postemergence, 500 g ai/ha, visual injury, 0 to 100 scale (0 no effect, 100 complete control), approx. ten days
[14] = Preemergence, 125 g ai/ha, 0 to 100 scale, 0 = no effect, 100 = complete control
[15] = Preemergence, 500 g ai/ha, 0 to 100 scale, 0 = no effect, 100 = complete control
[16] = 250 g ai/ha, flooded paddy test, visual rating on 0 to 100 scale (0 no effect, 100 complete control) after 13 to 15 days
[17] = 62 g ai/ha, scale of 0 to 100 where 0 is no effect and 100 is complete control
[18] = 125 g ai/ha, scale 0 to 100, 0 is no effect, 100 is complete control
[19] = Flood, 31 g ai/ha, scale 0 to 100 (0 no effect, 100 complete control)
[20] = 31 g ai/ha, 0 to 100 scale (0 no effect, 100 complete control)
[21] = 125 g ai/ha, scale 0 to 100 (0 no effect, 100 complete control)
[22] = 250 g ai/ha, scale 0 to 100 (0 no effect, 100 complete control), 13 to 15 days

SMILES: O=C1CCCC(O)=C1C(=O)c1cnc(-c2ccsc2)n(C2CCOCC2)c1=O [Compound 186]
- Plant response rating, Pigweed [1, 12]: 100
- Pigweed plant response rating [1, 13]: 100
- Plant response rating, Pigweed [1, 14]: 50
- Plant response rating, Pigweed [1, 15]: 100
- Plant response rating, Morningglory [2, 12]: 100
- Morningglory plant response rating [2, 13]: 100
- Plant response rating, Morningglory [2, 14]: 20
- Plant response rating, Morningglory [2, 15]: 90
- Plant response rating, Flood, Rice (rice (Oryza sativa); [16]): 65
- Plant response rating, Rice (rice (Oryza sativa); [17]): 20
- Plant response rating, Rice (rice (Oryza sativa); [18]): 45
- Rice plant response rating (rice (Oryza sativa); [19]): 10
- Plant response rating, Flood, Ducksalad [3, 16]: 100
- Plant response rating, Ducksalad [3, 17]: 90
- Plant response rating, Ducksalad [3, 18]: 90
- Ducksalad plant response rating [3, 19]: 90
- Plant response rating, Flood, Barnyardgrass [4, 16]: 30
- Plant response rating, Barnyardgrass [4, 17]: 20
- Plant response rating, Barnyardgrass [4, 18]: 30
- Barnyardgrass plant response rating [4, 19]: 0
- Plant response rating, Flood, Sedge, Umbrella [5, 16]: 90
- Plant response rating, Sedge, Umbrella [5, 17]: 80
- Plant response rating, Sedge, Umbrella [5, 18]: 80
- Sedge, Umbrella plant response rating [5, 19]: 70
- Plant response rating, Cupgrass, Woolly [6, 20]: 70
- Plant response rating, Cupgrass, Woolly [6, 21]: 80
- Plant response rating, Cupgrass, Woolly [6, 22]: 85
- Plant response rating, Wheat [7, 20]: 0
- Plant response rating, Wheat [7, 21]: 0
- Plant response rating, Wheat [7, 22]: 5
- Plant response rating, Goosegrass [8, 20]: 85
- Plant response rating, Goosegrass [8, 21]: 98
- Plant response rating, Goosegrass [8, 22]: 100
- Plant response rating, Foxtail, Giant [9, 20]: 75
- Plant response rating, Foxtail, Giant [9, 21]: 95
- Plant response rating, Foxtail, Giant [9, 22]: 95
- Plant response rating, Morningglory [10, 20]: 95
- Plant response rating, Morningglory [10, 21]: 100
- Plant response rating, Morningglory [10, 22]: 100
- Plant response rating, Johnsongrass [11, 20]: 65
- Plant response rating, Johnsongrass [11, 21]: 75
- Plant response rating, Johnsongrass [11, 22]: 100
